Patent publication EP0236477B1 (priority 1985, dated 1987)

Key:
[1] = Duration of opioid antagonistic activity (general statements); format: in vivo; conditions: intravenously injectable
[2] = cited from earlier work; for potency relative to naloxone: in vivo
[3] = plasma of a patient; cited from earlier work

| SMILES | duration of antagonistic activity [1] | potency relative to naloxone [2] | potency as an antagonist relative to naltrexon ([2]; intravenous route) | time a pharmacologically active concentration can remain in the plasma [3] |
| --- | --- | --- | --- | --- |
| C=C1CC[C@@]2(O)[C@H]3Cc4ccc(O)c5c4[C@@]2(CCN3CC2CC2)[C@H]1O5 [6-methylene-6-desoxy-N-cyclopropylmethyl-14-hydroxydihydronormorphine] | at least 6 hours | significantly more potent | about four times more potent | three days |
| O=C1CC[C@@]2(O)[C@H]3Cc4ccc(O)c5c4[C@@]2(CCN3CC2CC2)[C@H]1O5 [naltrexon, reference compound] |  | significantly more potent |  |  |
